# Measured values taken from ChEMBL document CHEMBL5465560, “Selectivity Literature for EUbOPEN Chemogenomic Library” (2024).
# What was measured:
# [1] = target: T1, Mitogen-activated protein kinase kinase kinase 2 (Homo sapiens) (UniProt Q9Y2U5); assay: Selectivity interaction (Ambit KINOMEscan and KiNATiv profiling in Jurkat cells) EUB0000090b MAP3K2; type: cell-based; settings: at 1 µM
# T1 sequence (whole entry): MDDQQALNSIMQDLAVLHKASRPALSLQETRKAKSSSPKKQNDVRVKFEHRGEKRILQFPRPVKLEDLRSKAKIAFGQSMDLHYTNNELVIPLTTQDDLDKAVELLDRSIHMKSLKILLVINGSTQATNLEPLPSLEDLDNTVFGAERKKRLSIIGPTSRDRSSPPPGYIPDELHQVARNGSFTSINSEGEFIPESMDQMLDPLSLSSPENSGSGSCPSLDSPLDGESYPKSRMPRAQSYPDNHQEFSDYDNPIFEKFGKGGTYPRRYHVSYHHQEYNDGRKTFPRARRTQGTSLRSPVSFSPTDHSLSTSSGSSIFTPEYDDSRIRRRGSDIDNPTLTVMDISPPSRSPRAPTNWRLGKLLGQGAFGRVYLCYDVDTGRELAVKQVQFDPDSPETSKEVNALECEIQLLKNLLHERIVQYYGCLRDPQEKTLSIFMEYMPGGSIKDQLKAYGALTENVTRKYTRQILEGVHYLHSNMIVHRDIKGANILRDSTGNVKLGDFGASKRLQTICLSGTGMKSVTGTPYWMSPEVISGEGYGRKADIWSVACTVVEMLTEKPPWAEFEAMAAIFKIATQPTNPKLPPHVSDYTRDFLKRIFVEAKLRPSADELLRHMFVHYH
# [2] = target: T2, Serine/threonine-protein kinase LATS2 (Homo sapiens) (UniProt Q9NRM7); assay: Selectivity interaction (KinomeScan (DiscoverX)) EUB0000045b LATS2
# T2 sequence (whole entry): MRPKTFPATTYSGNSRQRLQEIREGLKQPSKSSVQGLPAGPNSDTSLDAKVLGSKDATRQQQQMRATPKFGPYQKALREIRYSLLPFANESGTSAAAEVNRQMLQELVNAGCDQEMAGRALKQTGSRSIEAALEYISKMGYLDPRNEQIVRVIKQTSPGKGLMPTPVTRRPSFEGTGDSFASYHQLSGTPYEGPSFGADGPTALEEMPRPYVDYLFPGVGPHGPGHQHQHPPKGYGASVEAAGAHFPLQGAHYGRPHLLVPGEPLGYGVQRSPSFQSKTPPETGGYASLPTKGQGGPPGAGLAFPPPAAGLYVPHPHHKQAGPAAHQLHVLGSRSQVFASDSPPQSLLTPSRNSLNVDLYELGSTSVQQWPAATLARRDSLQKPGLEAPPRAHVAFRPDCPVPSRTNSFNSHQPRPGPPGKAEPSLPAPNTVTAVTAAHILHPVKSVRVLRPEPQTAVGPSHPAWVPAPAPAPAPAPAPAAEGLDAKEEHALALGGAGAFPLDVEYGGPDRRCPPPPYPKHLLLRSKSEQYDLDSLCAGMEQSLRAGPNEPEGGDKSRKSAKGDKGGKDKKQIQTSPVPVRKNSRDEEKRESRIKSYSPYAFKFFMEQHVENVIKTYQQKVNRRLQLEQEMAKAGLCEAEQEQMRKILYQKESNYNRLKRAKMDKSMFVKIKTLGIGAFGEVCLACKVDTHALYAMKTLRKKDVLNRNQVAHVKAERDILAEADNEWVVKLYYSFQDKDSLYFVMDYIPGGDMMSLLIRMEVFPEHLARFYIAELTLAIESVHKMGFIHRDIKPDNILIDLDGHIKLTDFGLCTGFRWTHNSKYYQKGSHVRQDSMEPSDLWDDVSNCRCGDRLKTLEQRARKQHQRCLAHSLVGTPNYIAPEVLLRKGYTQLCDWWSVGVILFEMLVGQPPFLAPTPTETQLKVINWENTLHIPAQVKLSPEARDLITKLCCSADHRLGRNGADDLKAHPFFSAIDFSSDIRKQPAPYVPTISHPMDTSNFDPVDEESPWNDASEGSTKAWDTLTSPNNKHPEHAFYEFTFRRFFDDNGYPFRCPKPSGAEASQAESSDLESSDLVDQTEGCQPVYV
# [3] = target: T3, Mitogen-activated protein kinase kinase kinase kinase 3 (Homo sapiens) (UniProt Q8IVH8); assay: Selectivity interaction (KinomeScan (DiscoverX)) EUB0000695a MAP4K3; settings: at 100 nM
# T3 sequence (whole entry): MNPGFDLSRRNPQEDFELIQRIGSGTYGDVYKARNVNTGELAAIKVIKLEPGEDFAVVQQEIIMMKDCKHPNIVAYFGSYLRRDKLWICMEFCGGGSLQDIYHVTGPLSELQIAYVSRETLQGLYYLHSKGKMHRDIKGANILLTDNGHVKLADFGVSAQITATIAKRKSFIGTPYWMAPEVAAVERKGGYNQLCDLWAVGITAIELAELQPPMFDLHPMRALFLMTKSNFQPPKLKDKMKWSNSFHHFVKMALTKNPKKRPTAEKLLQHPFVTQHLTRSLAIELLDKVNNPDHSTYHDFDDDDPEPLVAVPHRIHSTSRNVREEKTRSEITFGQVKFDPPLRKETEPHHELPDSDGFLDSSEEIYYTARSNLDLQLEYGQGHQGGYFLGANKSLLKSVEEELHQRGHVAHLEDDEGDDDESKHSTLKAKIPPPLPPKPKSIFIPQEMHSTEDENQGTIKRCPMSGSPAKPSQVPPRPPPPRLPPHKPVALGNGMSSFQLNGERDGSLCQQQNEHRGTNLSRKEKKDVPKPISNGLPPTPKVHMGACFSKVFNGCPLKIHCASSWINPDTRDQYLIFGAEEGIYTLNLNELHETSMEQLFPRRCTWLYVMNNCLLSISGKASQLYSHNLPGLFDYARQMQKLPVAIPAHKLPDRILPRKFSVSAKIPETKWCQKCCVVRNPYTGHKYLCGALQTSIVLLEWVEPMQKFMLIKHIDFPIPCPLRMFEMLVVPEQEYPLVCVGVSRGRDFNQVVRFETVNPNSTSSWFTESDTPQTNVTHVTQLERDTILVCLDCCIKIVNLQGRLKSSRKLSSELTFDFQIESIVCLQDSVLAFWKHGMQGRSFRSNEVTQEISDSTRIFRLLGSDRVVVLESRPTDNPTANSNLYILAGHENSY
smiles,measurement,setting,value
CN(C)C/C=C/C(=O)Nc1ccc(C(=O)N2CCCC(Nc3ncc(Cl)c(-c4c[nH]c5ccccc45)n3)C2)cc1 (centres undefined),% of control,[1],99%
C=CC(=O)Nc1cc(-n2c(=O)ccc3cnc4ccc(-c5ccc(NS(C)(=O)=O)cc5)cc4c32)ccc1C,% of control,[2]; at 1 µM,100%
same,% of control,[2]; at 10 µM,81%
Cc1cc(F)c(C(=O)Nc2cccc(-c3nncn3C(C)C)n2)cc1-n1cnc(C2CC2)c1,% of control,[3],70%
